Measurements reported in patent US6656911B2, “Serine protease inhibitors” (Cortech, Inc., priority 1994, dated 2003).

Assays:
[1] = Blood level screening after oral dose; type: in vivo, Sprague-Dawley rats; conditions: rat, oral gavage 10 mg/kg; for concentration at 1 h / concentration at 3 h / concentration at 6 h: male, Sprague-Dawley, plasma; for concentration at 1 h: read-out: Plasma Levels (μM) 1 hr; for concentration at 3 h: read-out: Plasma Levels (μM) 3 hr; for concentration at 6 h: read-out: Plasma Levels (μM) 6 hr
Experimental: The inhibitors were dissolved or suspended in polyethylene glycol (PEG), PEG-400 or PEG:H2O:EtOH at a concentration of 10 mg/ml. Unfasted male Sprague-Dawley rats were given an oral dose of this solution by gavage. Rats received 10 mg inhibitor/kg body weight in a volume of 1 ml/kg. After 1,3 or 6 hr., the rats were killed with an overdose of urethane (2.5 g/kg; i.p.) and the blood collected in a heparinized tube via cardiac puncture. Red blood cells were separated from the plasma by centrifugation.
Depending on the inhibitor, one of four organics (ethyl acetate, toluene, isopropyl ether or methyl t-butyl ether) was used to extract the compound from the plasma. Inhibitor concentrations were measured by HPLC or LC/MS analysis.

[2] = tested on: polymorphoneucleocyte (PMN); test: Extracellular Matrix (ECM) degradation assay; type: cell-based; conditions: PMN's stimulated with opsonized zymosan, 4 hr at 37° C.; for ECM DATA % Inhibition 1 uM / inhibition at 1 µM: 1 uM inhibitor; for ECM DATA % Inhibition 5 uM / inhibition at 5 µM: 5 uM inhibitor
Experimental: Forty-eight well plates on which extracellular matrix had been established were supplied to Cortech by Dr. Simon's group at the State University of New York at Stony Brook. Briefly, the plates were prepared as follows: R22 rat heart smooth muscle cells were seeded into wells at 2.5×10^4 cells/cm. The cells were fed every 4 days with Eagle's Minimal Essential Media supplemented with fetal bovine serum, tryptose phosphate broth, cefotaxime and streptomycin. At confluence, daily supplements of 50 ug/ml ascorbic acid were added for 8 to 10 days during the synthesis of the ECM layer. [^35S]sulfate and [^3H]proline were also added to the culture media to incorporate radiolabel into the matrix. Cells were later lysed with 25 mM NH4OH. Plates were washed three times with water and once with phosphate-buffered saline containing 0.02% NaN3. Plates were stored at 4° C. until use.
Matrix degradation assays were performed as follows: 0.40 ml of Hanks balance salt solution (HBSS) containing 1 or 5 uM test inhibitor (final concentration; diluted from DMSO stock solution; <2% DMSO final concentration) was added to the wells. After 30 minutes, 50 ul of a polymorphoneucleocyte (PMN) suspension was added resulting in 5×10^5 cells/well. PMN's were stimulated with opsonized zymosan. Zymosan particles were washed and suspended in 0.5 ml human serum for 1 hr at 37° C., vortexing every 15 min. The particles were then washed three times with HBSS and added to wells at a ratio of 10 particles/PMN in a volume of 50 ul. After a 4 hr incubation at 37° C., a 100 ul aliquot of the supernatant was withdrawn for scintillation counting. Following removal of the remaining supernatant, the residual ECM was solubilized with 0.5 ml 2M NaOH. The amount of tritium in this solubilized ECM was accessed by scintillation. ECM degradation data are expressed as (soluble counts released/total ECM counts)—(basal counts released without PMN's/total ECM counts).

[3] = target: T1, human neutrophil elastase (HNE) (Homo sapiens, UniProt P08246); test: HNE Ki of CE compounds, tested as described in WO 96/16080; type: biochemical; conditions: read-out: HNE Ki
T1 sequence (P08246 30-267): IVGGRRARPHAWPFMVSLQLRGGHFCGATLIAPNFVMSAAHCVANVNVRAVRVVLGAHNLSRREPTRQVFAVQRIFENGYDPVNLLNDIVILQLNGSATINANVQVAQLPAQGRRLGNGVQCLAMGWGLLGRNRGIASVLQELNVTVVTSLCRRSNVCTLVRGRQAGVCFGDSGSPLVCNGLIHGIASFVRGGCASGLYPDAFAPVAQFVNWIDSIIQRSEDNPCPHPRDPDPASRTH

Row | Molecule | Plasma Levels (μM) 1 hr [1] | Plasma Levels (μM) 3 hr [1] | Plasma Levels (μM) 6 hr [1] | Ki [3] | concentration at 1 h [1] | concentration at 3 h [1] | concentration at 6 h [1] | ECM DATA % Inhibition 1 uM [2] | ECM DATA % Inhibition 5 uM [2] | inhibition at 1 µM [2] | inhibition at 5 µM [2]
1 | Cc1cccc(Cc2nnc(C(=O)[C@@H](NC(=O)[C@@H]3CCCN3C(=O)[C@@H](NC(=O)OCc3ccccc3)C(C)C)C(C)C)o2)c1 [CE2072, (Benzyloxycarbonyl)-L-valyl-N-[1-(2-[5-(3-methylbenzyl)-1,3,4-oxadiazolyl]carbonyl)-2-(S)-methylpropyl]-L-prolinamide] |  |  |  |  | 0.277 µM | 0.115 µM | 0.061 µM |  |  | 64.8% | 74.5%
2 | Cc1cccc(Cc2nnc(C(=O)[C@@H](NC(=O)Cn3c(-c4ccc(F)cc4)ncc(N)c3=O)C(C)C)o2)c1 [CE2101, 2-[5-Amino-6-oxo-2-(4-fluorophenyl)-1,6-dihydro-1-pyrimidinyl]-N-[1-(2-[5(3-methylbenzyl)-1,3,4-oxadiazolyl]carbonyl)-2-(S)-methylpropyl]acetamide] |  |  |  |  | 1.24 µM | 1.37 µM | 1.04 µM |  |  | 44.6% | 51.2%
3 | Cc1cccc(Cc2nnc(C(=O)C(NC(=O)CN3C(=O)C(N)N=C(c4ccccc4)c4ccccc43)C(C)C)o2)c1 [CE2134, (R,S)-3-Amino-2-oxo-5-phenyl-1,4,-benzodiazepine-N-[1-(2-[5-(3-methylbenzyl)-1,3,4-oxadiazolyl]carbonyl)-2-(S)-methylpropyl]acetamide] |  |  |  | 2 nM |  | 5.02 µM |  |  |  | 21.7% | 25.7%
4 | Cc1cccc(Cc2nnc(C(=O)[C@@H](NC(=O)CN3C(=O)CN=C(c4ccccc4)c4ccccc43)C(C)C)o2)c1 [CE2157] |  |  |  | 1.4 nM |  | 3.81 µM |  |  |  | 9.96% | 13.4%
5 | Cc1cccc(Cc2nnc(C(=O)[C@@H](NC(=O)CN3C(=O)N[C@H](C(C)C)C3=O)C(C)C)o2)c1 [CE2174, 4-(R)-Isopropyl-2,5-imidazolidinedione-N-[1-(2-[5-(3-methylbenzyl)-1,3,4-oxadiazolyl]carbonyl)-2-(S)-methylpropyl]acetamide] | 1.86 µM | 0.97 µM |  | 15.2 nM |  |  |  | 1.49% | 18.3% |  | 
6 | Cc1cccc(Cc2nnc(C(=O)C(NC(=O)CN3C(=O)C(c4ccccc4)N(C)C3=O)C(C)C)o2)c1 [CE2179, 5-(R,S)-Phenyl-1-methyl-2,4-imidazolidinedione-N-[1-(2-[5-(3-methylbenzyl)-1,3,4-oxadiazolyl]carbonyl)-2-(S)-methylpropyl]acetamide] |  |  |  | 7.6 nM | 1.23 µM | 0.599 µM |  |  |  | 48.8% | 45.9%
7 | Cc1cccc(Cc2nnc(C(=O)C(NC(=O)CN3C(=O)C(Cc4ccccc4)N(CCN4CCOCC4)C3=O)C(C)C)o2)c1 [CE2184, 1-(N-Morpholinoethyl)-5-(S)-benzyl-2,4-imidazolidinedione-N-[1-(2-[5-(3-methylbenzyl)-1,3,4-oxadiazolyl]carbonyl)-2-(R,S)-methylpropyl]acetamide] |  |  |  | 8.2 nM |  | 0.57 µM |  |  |  | 30.5% | 32.4%
8 | Cc1cccc(Cc2nnc(C(=O)[C@@H](NC(=O)CN3C(=O)NC(c4ccc(N(C)C)cc4)C3=O)C(C)C)o2)c1 (stereo partly shown) [CE2194] | 1.11 µM | 0.553 µM |  | 2.4 nM |  |  |  | 41% | 58.7% |  | 
9 | Cc1cccc(Cc2nnc(C(=O)[C@@H](NC(=O)CN3C(=O)NC(C)(c4ccccn4)C3=O)C(C)C)o2)c1 (stereo partly drawn) [CE2216, [4-(R,S)-(2-Pyridyl)-4-(R,S)-methyl]-2,5-imidazolidinedione-N-[1-(2-[5-(3-methylbenzyl)-1,3,4-oxadiazolyl]carbonyl)-2-(S)-methylpropyl]acetamide] | 0.77 µM | 0.47 µM | 0.25 µM | 4.1 nM |  |  |  | 32.1% | 37.15% |  | 

Second part, led by results:

Row | Plasma Levels (μM) 1 hr [1] | Plasma Levels (μM) 3 hr [1] | Plasma Levels (μM) 6 hr [1] | Ki [3] | concentration at 1 h [1] | concentration at 3 h [1] | concentration at 6 h [1] | Molecule | ECM DATA % Inhibition 1 uM [2] | ECM DATA % Inhibition 5 uM [2] | inhibition at 1 µM [2] | inhibition at 5 µM [2]
10 | 1.751 µM | 1.575 µM | 2.316 µM | 2.4 nM |  |  |  | 2-[(4-Fluorophenyl)-1,6-dihydro-1-pyrimidinyl]-N-[1-(2-[5-(3-methylbenzyl)-1,3,4-oxadiazolyl]carbonyl)-2-(S)-methylpropyl]acetamide [CE2254] | 57.2% | 58.4% |  | 
11 |  |  |  | 0.069 nM |  | 0.064 µM |  | CC(C)[C@H](NC(=O)[C@@H]1CCCN1C(=O)[C@@H](NC(=O)OCc1ccccc1)C(C)C)C(=O)c1nnc(Cc2ccc(N(C)C)cc2)o1 [CE2100, (Benzyloxycarbonyl)-L-valyl-N-[1-(2-[5-(4-Dimethylaminobenzyl)-1,3,4-oxadiazolyl]carbonyl)-2-(S)-methylpropyl]-L-prolinamide] |  |  | 57.6% | 56.6%
12 |  |  |  | 2.1 nM |  | 0.162 µM |  | Cc1cccc(Cc2nnc(C(=O)C(NC(=O)C3Cc4cccc5c4N3C(=O)C(N)CC5)C(C)C)o2)c1 [CE2130, (2S,5S)-5-Amino-1,2,4,5,6,7-hexahydroazepino-[3,2,1]-indole-4-one-carbonyl-N-[1-(2-[5-(3-methylbenzyl)-1,3,4-oxadiazolyl]carbonyl)-(R,S)-2-methylpropyl]amide] |  |  | 16.3% | 29%
13 |  |  |  | 0.28 nM | 0 µM | 0 µM | 0 µM | Cc1cccc(Cc2nnc(C(=O)C(NC(=O)CN3C(=O)NC(c4ccccc4)C3=O)C(C)C)o2)c1 [CE2149, 5-(R,S)-Phenyl-2,4-imidazolidinedione-N-[1-(2-[5-(3-methylbenzyl)-1,3,4-oxadiazolyl]carbonyl)-2-(S)-methylpropyl]acetamide] |  |  | 51.3% | 55.9%
14 |  |  |  | 0.75 nM |  | 0.316 µM |  | Cc1cccc(Cc2nnc(C(=O)[C@@H](NC(=O)[C@@H]3CCCN3C(=O)[C@@H](NS(C)(=O)=O)C(C)C)C(C)C)o2)c1 [CE2163, Methylsulfonyl-L-valyl-N-[1-(2-[5-(3-methylbenzyl)-1,3,4-oxadiazolyl]carbonyl)-2-(S)-methylpropyl]-L-prolinamide] |  |  | 54.7% | 64%
15 |  |  |  | 0.016 nM | 0.393 µM | 0.41 µM | 0 µM | CC(C)[C@H](NC(=O)[C@@H]1CCCN1C(=O)[C@@H](NC(=O)OCc1ccccc1)C(C)C)C(=O)c1nnc(Cc2ccc3c(c2)OCO3)o1 [CE2177, (Benzyloxycarbonyl)-L-valyl-N-[1-(2-[5-(3,4-methylenedioxybenzyl)-1,3,4-oxadiazolyl]carbonyl)-2-(S)-methylpropyl]-L-prolinamide] |  |  | 74.2% | 76.8%
16 |  |  |  | 0.29 nM |  | 0.185 µM |  | CC(C)[C@H](NC(=O)[C@@H]1CCCN1C(=O)[C@@H](NC(=O)OCc1ccccc1)C(C)C)C(=O)c1noc(Cc2ccc3c(c2)OCO3)n1 [CE2178, (Benzyloxycarbonyl)-L-valyl-N-[1-(3-[5-(3,4-methylenedioxybenzyl)-1,2,4-oxadiazolyl]carbonyl)-2-(S)-methylpropyl]-L-prolinamide] |  |  |  | 34%
17 |  |  |  | 0.93 nM |  |  |  | (R,S)-3-Amino-2-oxo-5-phenyl-1,4-(2′-chlorobenzodiazepine)-N-[1-(2-[5-(3-methylbenzyl)-1,3,4-oxadiazolyl]carbonyl)-2-(R,S)-methylpropyl]acetamide [CE2223] | 34.15% | 36.15% |  | 
